Assays:
COLO 205 = test: Antiproliferative activity against human COLO205 cells harboring B-Raf after 72 hrs by MTS assay; assay type: functional, cell-based; settings: COLO 205, 72 h
Mus musculus = test: Toxicity in Harlan nude mouse xenografted with human MV4-11 cells assessed as mouse death at 5 to 80 mg/kg, ig bid for 20 days; assay type: organism-based; settings: in vivo, po, 480 h
MV4-11 [1] = test: Antitumor activity against human MV4-11 cells xenografted in Harlan nude mouse assessed as tumor growth inhibition at 80 mg/kg, ig bid for 20 days relative to control; assay type: functional; settings: MV4-11, po, 480 h, read-out: TGI
HUVEC = test: Antiproliferative activity against HUVEC after 72 hrs by MTS assay; assay type: cell-based; settings: Homo sapiens
[2] = molecular target: AMPK alpha2/beta1/gamma1 (Homo sapiens) (UniProt P54646+P54619+Q9Y478); test: Inhibition of human AMPK alpha2/beta1/gamma1 at 0.1 uM relative to control; assay type: protein-complex assay
[3] = molecular target: Serine/threonine-protein kinase Nek6 (Homo sapiens) (UniProt Q9HC98); test: Inhibition of human NEK6 at 0.1 uM relative to control
[4] = Toxicity in Harlan nude mouse xenografted with human MV4-11 cells administered ig bid for 20 days; settings: in vivo, po
LC-2-ad = test: Antiproliferative activity against human LC2/ad cells harboring RET after 72 hrs by MTS assay; assay type: functional, cell-based
[5] = molecular target: ALK tyrosine kinase receptor (Homo sapiens) (UniProt Q9UM73); test: Inhibition of human ALK at 0.1 uM relative to control
Chain of ALK tyrosine kinase receptor (Homo sapiens) (Q9UM73 19-1620 limits assumed): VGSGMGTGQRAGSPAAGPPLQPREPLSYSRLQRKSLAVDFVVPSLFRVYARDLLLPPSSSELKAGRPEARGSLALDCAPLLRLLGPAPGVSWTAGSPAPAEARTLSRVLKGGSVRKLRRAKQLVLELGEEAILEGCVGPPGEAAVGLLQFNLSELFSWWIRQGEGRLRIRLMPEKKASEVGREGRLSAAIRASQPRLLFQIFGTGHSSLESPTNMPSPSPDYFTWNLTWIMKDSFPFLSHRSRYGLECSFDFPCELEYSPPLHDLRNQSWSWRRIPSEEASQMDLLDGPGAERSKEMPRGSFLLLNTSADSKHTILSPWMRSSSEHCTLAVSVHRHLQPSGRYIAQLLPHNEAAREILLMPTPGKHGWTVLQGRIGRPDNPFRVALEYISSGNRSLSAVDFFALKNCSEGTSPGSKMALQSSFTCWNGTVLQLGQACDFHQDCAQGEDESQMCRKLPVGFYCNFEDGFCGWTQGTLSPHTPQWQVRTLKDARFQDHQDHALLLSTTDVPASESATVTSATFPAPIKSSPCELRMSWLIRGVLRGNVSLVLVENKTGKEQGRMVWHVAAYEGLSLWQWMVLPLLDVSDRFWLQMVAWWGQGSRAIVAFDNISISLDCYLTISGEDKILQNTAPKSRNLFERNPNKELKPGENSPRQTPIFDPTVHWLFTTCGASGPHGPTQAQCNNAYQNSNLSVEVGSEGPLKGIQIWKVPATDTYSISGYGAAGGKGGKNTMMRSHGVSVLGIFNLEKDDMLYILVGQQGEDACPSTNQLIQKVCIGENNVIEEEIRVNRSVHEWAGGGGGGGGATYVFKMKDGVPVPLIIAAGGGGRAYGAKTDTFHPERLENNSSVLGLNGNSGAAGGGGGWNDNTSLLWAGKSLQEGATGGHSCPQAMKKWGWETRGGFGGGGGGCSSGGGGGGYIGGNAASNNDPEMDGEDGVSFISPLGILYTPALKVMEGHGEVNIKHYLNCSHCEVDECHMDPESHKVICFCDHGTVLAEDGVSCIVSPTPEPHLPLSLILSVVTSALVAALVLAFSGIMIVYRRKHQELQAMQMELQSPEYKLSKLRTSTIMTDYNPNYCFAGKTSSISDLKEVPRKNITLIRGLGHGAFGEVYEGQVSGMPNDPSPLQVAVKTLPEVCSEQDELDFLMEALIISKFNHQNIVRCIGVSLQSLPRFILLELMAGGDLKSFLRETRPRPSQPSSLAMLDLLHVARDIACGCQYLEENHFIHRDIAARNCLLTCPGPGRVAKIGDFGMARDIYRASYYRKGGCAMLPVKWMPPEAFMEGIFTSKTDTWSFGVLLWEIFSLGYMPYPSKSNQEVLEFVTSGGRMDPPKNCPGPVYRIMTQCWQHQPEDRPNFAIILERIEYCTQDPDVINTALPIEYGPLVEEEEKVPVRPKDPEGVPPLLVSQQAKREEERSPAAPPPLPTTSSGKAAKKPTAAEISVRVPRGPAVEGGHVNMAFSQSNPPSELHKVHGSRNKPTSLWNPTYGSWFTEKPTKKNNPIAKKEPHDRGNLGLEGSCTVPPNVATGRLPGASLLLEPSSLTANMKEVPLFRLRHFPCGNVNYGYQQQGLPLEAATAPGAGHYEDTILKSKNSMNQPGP

MV4-11 [6] = test: Antitumor activity against human MV4-11 cells xenografted in Harlan nude mouse assessed as tumor growth inhibition at 5 mg/kg, ig bid for 20 days relative to control; assay type: functional; settings: MV4-11, po, 480 h, read-out: TGI
[7] = molecular target: Fibroblast growth factor receptor 1 (Homo sapiens) (UniProt P11362); test: Inhibition of human FGFR1 at 0.1 uM relative to control
Chain of Fibroblast growth factor receptor 1 (Homo sapiens) (P11362 22-822 limits assumed): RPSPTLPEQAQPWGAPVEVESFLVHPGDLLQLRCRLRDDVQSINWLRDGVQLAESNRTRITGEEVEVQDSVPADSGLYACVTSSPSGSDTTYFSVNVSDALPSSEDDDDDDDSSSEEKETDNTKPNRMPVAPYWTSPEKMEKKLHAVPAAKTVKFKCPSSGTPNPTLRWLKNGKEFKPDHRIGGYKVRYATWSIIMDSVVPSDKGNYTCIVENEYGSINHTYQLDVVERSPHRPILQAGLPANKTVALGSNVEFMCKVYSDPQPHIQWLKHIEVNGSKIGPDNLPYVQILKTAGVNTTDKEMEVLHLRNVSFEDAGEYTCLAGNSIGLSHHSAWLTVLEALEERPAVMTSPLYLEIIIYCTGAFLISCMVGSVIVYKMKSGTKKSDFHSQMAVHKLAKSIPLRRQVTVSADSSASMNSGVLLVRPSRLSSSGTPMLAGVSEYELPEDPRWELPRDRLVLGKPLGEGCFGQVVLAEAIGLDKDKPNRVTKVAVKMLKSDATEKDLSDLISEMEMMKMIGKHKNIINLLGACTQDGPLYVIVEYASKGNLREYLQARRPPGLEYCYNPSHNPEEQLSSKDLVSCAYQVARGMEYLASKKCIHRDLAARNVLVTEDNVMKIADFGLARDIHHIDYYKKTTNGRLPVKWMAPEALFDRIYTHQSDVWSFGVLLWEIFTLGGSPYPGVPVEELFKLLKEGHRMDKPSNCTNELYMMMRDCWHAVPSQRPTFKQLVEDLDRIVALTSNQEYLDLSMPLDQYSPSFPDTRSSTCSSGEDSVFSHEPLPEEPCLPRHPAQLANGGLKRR

Cytochrome P450 3A4 = Cytochrome P450 3A4 (Homo sapiens, UniProt P08684); test: Inhibition of microsomal CYP3A4 (unknown origin) using midazolam as substrate preincubated for 5 mins followed by NADPH addition by LC-MS/MS analysis; assay type: ADME
Chain of Cytochrome P450 3A4 (P08684 whole entry): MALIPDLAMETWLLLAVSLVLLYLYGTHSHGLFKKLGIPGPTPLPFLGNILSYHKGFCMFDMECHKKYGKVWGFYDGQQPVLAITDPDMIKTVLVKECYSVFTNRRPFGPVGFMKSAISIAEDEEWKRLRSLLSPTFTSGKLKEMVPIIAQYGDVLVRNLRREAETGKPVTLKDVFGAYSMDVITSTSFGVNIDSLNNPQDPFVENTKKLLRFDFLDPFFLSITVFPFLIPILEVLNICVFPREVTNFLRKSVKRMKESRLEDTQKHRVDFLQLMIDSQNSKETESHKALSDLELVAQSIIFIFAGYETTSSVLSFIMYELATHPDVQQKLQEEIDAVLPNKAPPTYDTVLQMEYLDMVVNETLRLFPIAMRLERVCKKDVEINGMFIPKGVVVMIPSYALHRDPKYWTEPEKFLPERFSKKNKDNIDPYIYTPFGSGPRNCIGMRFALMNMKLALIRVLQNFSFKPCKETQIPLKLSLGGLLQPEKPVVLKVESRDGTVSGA

KG-1 = test: Antiproliferative activity against human KG1 cells harboring wild type FLT3 after 72 hrs by MTS assay; assay type: functional, cell-based; settings: KG-1, 72 h
MV4-11 [8] = test: Antitumor activity against human MV4-11 cells xenografted in Harlan nude mouse assessed as tumor growth inhibition at 10 mg/kg, ig bid for 20 days relative to control; assay type: functional; settings: MV4-11, po, 480 h, read-out: TGI
MV4-11 [9] = test: Antitumor activity against human MV4-11 cells xenografted in Harlan nude mouse assessed as tumor growth inhibition at 20 mg/kg, ig bid for 20 days relative to control; assay type: functional; settings: MV4-11, po, 480 h, read-out: TGI
Cytochrome P450 1A2 = Cytochrome P450 1A2 (Homo sapiens, UniProt P05177); test: Inhibition of microsomal CYP1A2 (unknown origin) using phenacetin as substrate preincubated for 5 mins followed by NADPH addition by LC-MS/MS analysis; assay type: ADME
[10] = molecular target: Discoidin domain-containing receptor 2 (Homo sapiens) (UniProt Q16832); test: Inhibition of human DDR2 at 0.1 uM relative to control
Chain of Discoidin domain-containing receptor 2 (Homo sapiens) (Q16832 whole entry, the tested form may be a part): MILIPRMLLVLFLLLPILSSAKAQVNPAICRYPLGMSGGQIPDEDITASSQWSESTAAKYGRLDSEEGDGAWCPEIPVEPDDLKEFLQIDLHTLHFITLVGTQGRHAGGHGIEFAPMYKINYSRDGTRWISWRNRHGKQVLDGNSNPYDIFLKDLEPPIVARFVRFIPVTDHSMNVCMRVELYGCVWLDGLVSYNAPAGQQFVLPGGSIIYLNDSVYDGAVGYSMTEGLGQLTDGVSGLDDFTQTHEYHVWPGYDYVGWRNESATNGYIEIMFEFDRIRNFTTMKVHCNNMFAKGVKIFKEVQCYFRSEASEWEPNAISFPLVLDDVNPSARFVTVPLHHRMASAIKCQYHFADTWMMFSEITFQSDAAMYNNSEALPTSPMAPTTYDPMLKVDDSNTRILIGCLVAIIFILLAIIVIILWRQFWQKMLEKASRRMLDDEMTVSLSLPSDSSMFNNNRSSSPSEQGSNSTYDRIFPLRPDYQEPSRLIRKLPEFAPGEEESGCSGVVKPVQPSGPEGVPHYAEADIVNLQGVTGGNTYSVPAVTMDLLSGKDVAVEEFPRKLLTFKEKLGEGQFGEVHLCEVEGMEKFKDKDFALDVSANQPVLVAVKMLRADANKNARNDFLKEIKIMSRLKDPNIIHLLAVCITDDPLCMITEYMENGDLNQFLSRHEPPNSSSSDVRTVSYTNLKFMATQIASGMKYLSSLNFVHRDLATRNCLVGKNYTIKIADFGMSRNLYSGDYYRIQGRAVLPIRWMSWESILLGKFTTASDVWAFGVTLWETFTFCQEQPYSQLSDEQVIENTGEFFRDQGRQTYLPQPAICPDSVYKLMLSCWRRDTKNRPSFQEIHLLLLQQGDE

[11] = molecular target: Hepatocyte growth factor receptor (Homo sapiens) (UniProt P08581); test: Inhibition of human c-MET at 0.1 uM relative to control
[12] = molecular target: Epidermal growth factor receptor (Homo sapiens) (UniProt P00533); test: Inhibition of human EGFR at 0.1 uM relative to control
[13] = Oral bioavailability in Balb/c nude mouse at 40 mg/kg via gavage by LC-MS/MS analysis; assay type: ADME, organism-based; settings: in vivo
[14] = tested on: Mast/stem cell growth factor receptor Kit (Homo sapiens), P10721 [T670I]; test: Inhibition of human KIT T670I mutant at 0.1 uM relative to control
[15] = molecular target: Receptor-type tyrosine-protein kinase FLT3 (Homo sapiens, UniProt P36888); test: Inhibition of human FLT3
[16] = molecular target: Cyclin-dependent kinase 2 (Homo sapiens) (UniProt P24941); test: Inhibition of human CDK2 at 0.1 uM relative to control
[17] = molecular target: Insulin-like growth factor 1 receptor (Homo sapiens) (UniProt P08069); test: Inhibition of human IGF1R at 0.1 uM relative to control
[18] = molecular target: AMP-activated protein kinase (AMPK) alpha-1/beta-1/gamma-1 (Homo sapiens) (UniProt P54619+Q9Y478+Q13131); test: Inhibition of human AMPK alpha1/beta1/gamma1 at 0.1 uM relative to control; assay type: protein-complex assay
[19] = molecular target: Platelet-derived growth factor receptor beta (Homo sapiens) (UniProt P09619); test: Inhibition of human PDGFRbeta at 0.1 uM relative to control
Homo sapiens = organism: Homo sapiens; test: Inhibition of human FLT3 ITD mutant at 0.1 uM relative to control
[20] = molecular target: Platelet-derived growth factor receptor alpha (Homo sapiens, UniProt P16234); test: Inhibition of human PDGFRalpha at 0.1 uM relative to control
[21] = AUC (0 to infinity) in Balb/c nude mouse at 40 mg/kg, po via gavage by LC-MS/MS analysis; assay type: ADME, organism-based; design: dose 40 mg/kg, time infinity, route oral; settings: in vivo
MV4-11 [22] = test: Antitumor activity against human MV4-11 cells xenografted in Harlan nude mouse assessed as tumor growth inhibition at 40 mg/kg, ig bid for 20 days relative to control; assay type: functional; settings: MV4-11, po, 480 h, read-out: TGI
[23] = molecular target: Insulin receptor (Homo sapiens) (UniProt P06213); test: Inhibition of human INSR at 0.1 uM relative to control
[24] = molecular target: Tyrosine-protein kinase ZAP-70 (Homo sapiens) (UniProt P43403); test: Inhibition of human ZAP70 at 0.1 uM relative to control
Chain of Tyrosine-protein kinase ZAP-70 (Homo sapiens) (P43403 whole entry): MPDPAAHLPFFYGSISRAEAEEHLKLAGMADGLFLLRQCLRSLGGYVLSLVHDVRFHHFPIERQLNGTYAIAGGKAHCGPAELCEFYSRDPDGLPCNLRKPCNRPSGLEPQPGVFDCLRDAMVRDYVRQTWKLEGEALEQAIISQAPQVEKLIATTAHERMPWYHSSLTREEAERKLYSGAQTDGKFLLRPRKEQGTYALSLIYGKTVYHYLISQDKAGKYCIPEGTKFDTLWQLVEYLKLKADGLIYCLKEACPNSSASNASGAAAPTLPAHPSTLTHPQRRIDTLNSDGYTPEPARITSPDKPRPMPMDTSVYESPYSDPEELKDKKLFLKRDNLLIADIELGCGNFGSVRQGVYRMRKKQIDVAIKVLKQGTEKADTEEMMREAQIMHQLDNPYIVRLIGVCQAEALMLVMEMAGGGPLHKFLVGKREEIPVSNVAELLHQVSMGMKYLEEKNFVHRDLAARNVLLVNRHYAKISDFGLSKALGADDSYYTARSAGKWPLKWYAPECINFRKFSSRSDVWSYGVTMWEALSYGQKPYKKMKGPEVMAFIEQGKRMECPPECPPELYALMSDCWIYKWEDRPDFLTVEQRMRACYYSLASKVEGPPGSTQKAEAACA

MOLM-13 = test: Antiproliferative activity against human MOLM13 cells harboring FLT3 ITD mutant after 72 hrs by MTS assay; settings: MOLM-13, 72 h
[25] = molecular target: Aurora kinase A (Homo sapiens) (UniProt O14965); test: Inhibition of human Aurora A at 0.1 uM relative to control
NCI-H2228 = test: Antiproliferative activity against human NCI-H2228 cells harboring ALK after 72 hrs by MTS assay; assay type: functional, cell-based; settings: NCI-H2228, 72 h
[26] = molecular target: Serine/threonine-protein kinase PAK 4 (Homo sapiens) (UniProt O96013); test: Inhibition of human PAK4 at 0.1 uM relative to control
Chain of Serine/threonine-protein kinase PAK 4 (Homo sapiens) (O96013 whole entry, looked up): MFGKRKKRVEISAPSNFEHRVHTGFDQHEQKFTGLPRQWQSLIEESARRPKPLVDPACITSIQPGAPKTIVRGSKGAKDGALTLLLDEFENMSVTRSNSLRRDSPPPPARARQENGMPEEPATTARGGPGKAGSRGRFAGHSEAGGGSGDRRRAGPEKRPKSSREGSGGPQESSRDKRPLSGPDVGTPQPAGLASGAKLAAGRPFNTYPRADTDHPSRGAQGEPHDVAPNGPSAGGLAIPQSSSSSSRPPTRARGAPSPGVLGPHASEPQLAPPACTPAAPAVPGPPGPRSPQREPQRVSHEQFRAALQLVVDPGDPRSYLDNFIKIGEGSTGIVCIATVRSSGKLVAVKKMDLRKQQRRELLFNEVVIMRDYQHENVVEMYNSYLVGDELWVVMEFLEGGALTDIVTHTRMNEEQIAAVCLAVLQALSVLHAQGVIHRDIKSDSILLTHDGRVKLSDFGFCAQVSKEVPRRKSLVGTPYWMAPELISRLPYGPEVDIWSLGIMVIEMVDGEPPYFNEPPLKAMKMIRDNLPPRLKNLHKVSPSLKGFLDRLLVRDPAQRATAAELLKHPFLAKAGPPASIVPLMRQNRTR

Cytochrome P450 2D6 = Cytochrome P450 2D6 (Homo sapiens, UniProt P10635); test: Inhibition of microsomal CYP2D6 (unknown origin) using dextromethorphan as substrate preincubated for 5 mins followed by NADPH addition by LC-MS/MS analysis; assay type: ADME
[27] = molecular target: Proto-oncogene tyrosine-protein kinase receptor Ret (Homo sapiens) (UniProt P07949); test: Inhibition of human RET at 0.1 uM relative to control
[28] = Half life in Balb/c nude mouse at 40 mg/kg, po via gavage by LC-MS/MS analysis; assay type: ADME, organism-based; settings: in vivo
HL-60 = test: Antiproliferative activity against FLT3 negative human HL60 cells after 72 hrs by MTS assay; assay type: functional, cell-based; settings: HL-60, 72 h
[29] = Tmax in Balb/c nude mouse at 40 mg/kg, po via gavage by LC-MS/MS analysis; assay type: ADME, organism-based; settings: in vivo

Compound: Cc1[nH]c(/C=C2\C(=O)Nc3ccc(F)cc32)c(C)c1NC(=O)[C@H]1CCCN1.Cl
- IC50 (COLO 205): 6.6 µM
- Activity (Mus musculus): Non-Toxic
- inhibition in vivo at 80 mg/kg (MV4-11 [1]): 98.9%
- IC50 (HUVEC): 11.3 µM
- inhibition [2]: 58%
- inhibition [3]: 8%
- MTD at 480 h [4]: 160 mg/kg/day
- IC50 (LC-2-ad): 0.621 µM
- inhibition [5]: 63%
- inhibition in vivo at 5 mg/kg (MV4-11 [6]): 52.4%
- inhibition [7]: 27%
- IC50 (Cytochrome P450 3A4): > 33 µM
- IC50 (KG-1): 24.5 µM
- inhibition in vivo at 10 mg/kg (MV4-11 [8]): 88.7%
- inhibition in vivo at 20 mg/kg (MV4-11 [9]): 99.8%
- IC50 (Cytochrome P450 1A2): 17.7 µM
- inhibition [10]: 7%
- inhibition [11]: -8%
- inhibition [12]: -1%
- bioavailability [13]: 59%
- inhibition [14]: 77%
- IC50 [15]: 0.0053 µM
- inhibition [16]: 8%
- inhibition [17]: 13%
- inhibition [18]: 38%
- inhibition [19]: 48%
- inhibition (Homo sapiens): 105%
- inhibition [20]: 49%
- AUC(0-inf) [21]: 3070 ng·h/mL
- inhibition in vivo at 40 mg/kg (MV4-11 [22]): 100%
- inhibition [23]: 16%
- inhibition [24]: 0%
- IC50 (MOLM-13): 0.0236 µM
- inhibition [25]: 2%
- IC50 (NCI-H2228): 3.44 µM
- inhibition [26]: 14%
- IC50 (Cytochrome P450 2D6): > 33 µM
- inhibition [27]: 88%
- half-life [28]: 1.6 h
- IC50 (HL-60): 6.47 µM
- Tmax [29]: 2 h

From ChEMBL document CHEMBL4007390, “Design, synthesis and biological evaluation of indolin-2-one-based derivatives as potent, selective and efficacious inhibitors of FMS-like tyrosine kinase3 (FLT3)” (Eur J Med Chem, 2017)
